Test results: the NIST ThermoML archive (doi:10.1016/j.fluid.2006.10.004)
Numbers after ± are expanded uncertainties.

How the values were obtained:
[1] = refractive index (Na D-line) (dimensionless); conditions: 293.15 K; 101.33 kPa; Liquid; Standard Abbe refractometry
[2] = 293.15 K; 101.33 kPa; Liquid

refractive index [1]	mass density [2]	Compound
1.4155 ± 0.0008	804.8 ± 1.3 kg/m3	CC(C)CC(=O)CC(C)C [2,6-dimethyl-4-heptanone]
1.4074 ± 0.0008	887.5 ± 1 kg/m3	CC(=O)CCC(C)C [5-methyl-2-hexanone]
1.4194 ± 0.0008	822.7 ± 1.2 kg/m3	CCC(=O)CCC(C)C [6-methyl-3-heptanone]
1.3811 ± 0.0008	992.7 ± 0.6 kg/m3	CCC(=O)O [propanoic acid]
